{"source": "patent US12251373B2", "about": "“Compounds and methods of treating retinal degeneration” (CASE WESTERN RESERVE UNIVERSITY, priority 2017, dated 2025)", "key": {"ovine COX-1": {"target": "T1, ovine COX-1 (Ovis aries, UniProt P05979)", "T1 construct": "purchased Abcam", "T1 sequence (P05979 25-600)": "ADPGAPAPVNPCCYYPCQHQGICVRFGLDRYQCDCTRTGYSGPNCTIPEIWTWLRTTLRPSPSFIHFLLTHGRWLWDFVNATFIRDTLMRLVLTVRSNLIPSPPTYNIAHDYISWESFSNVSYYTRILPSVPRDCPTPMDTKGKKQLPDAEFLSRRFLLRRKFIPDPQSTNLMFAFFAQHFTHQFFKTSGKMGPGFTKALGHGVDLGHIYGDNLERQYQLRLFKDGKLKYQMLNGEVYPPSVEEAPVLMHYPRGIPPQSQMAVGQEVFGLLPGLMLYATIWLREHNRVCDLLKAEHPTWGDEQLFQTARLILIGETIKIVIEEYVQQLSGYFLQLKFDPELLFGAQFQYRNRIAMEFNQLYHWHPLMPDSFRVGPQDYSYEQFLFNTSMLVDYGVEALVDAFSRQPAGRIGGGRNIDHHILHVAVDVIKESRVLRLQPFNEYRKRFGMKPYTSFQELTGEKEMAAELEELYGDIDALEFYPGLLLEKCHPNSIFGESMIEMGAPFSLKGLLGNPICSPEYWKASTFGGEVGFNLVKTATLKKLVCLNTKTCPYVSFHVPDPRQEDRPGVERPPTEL", "assay": "COX-1 activity assay", "assay_type": "biochemical", "conditions": "up to 80 μM of YC-001", "description": "The effect of the compound YC-001 on cyclooxygenase 1 (COX-1) activity was evaluated using the COX1 Inhibitor Screening Kit (Abcam, Cambridge, MA, USA) according to the manufacture's protocol. Briefly, the assay is based on the fluorometric detection of Prostaglandin G2, the intermediate product generated by the COX-1 enzyme. COX reaction mix included ovine COX-1, COX probe and COX cofactor and was prepared in a 96-well plate. YC-001 working solutions were dissolved in DMSO, and then mixed with COX Reaction Mix to the final concentrations (80, 40, 20, 10, 5, 2.5, 1.25, 0.625, 0.312, 0.156, 0.078 and 0.039 μM). Equivalent volume of DMSO was used as vehicle control and SC560 was used as a positive control. All controls and samples were measured in triplicate. Then Arachidonic Acid was added into each well to initiate all the reactions at the same time. The fluorescence was measured at Ex/Em=535/587 nm in a kinetic mode for 15 min at 25° C. Five time points were chosen in the linear range of the plot and the corresponding values for the fluorescence were used to calculate the slope of the linear regression equation. Relative COX-1 activity was calculated as Equation 5: […]"}, "[1]": {"assay": "Metabolic stability in mouse liver microsomes", "assay_type": "in vitro ADME", "conditions": "5 μM, with NADPH, vs verapamil", "description": "A standard metabolic stability assay was performed in the presence of mouse or human liver microsomes. YC-001 (5 μM) was incubated with the microsomes (0.125 mg mL^−1) resuspended in 0.2 mL of PBS buffer, pH 7.4 composed of 10 mM Na2HPO4, 1.8 mM KH2PO4, 137 mM NaCl, and 2.7 mM KCl. The enzymatic reaction to produce oxidized metabolites was initiated by addition of NADPH (1 mM). Samples were incubated at 37° C. for up to 240 min. Incubation without the cofactor was conducted in parallel to assess NADPH-independent clearance. The reactions were stopped with 0.2 mL of methanol followed by 0.3 mL chloroform. Residual YC-001 was extracted by vigorous shaking. To facilitate phase separation, the samples were spun down for 2 min, 15,000×g. The chloroform fraction was collected, dried down, and the extracted organic compounds were redissolved in 0.2 mL of methanol. To quantify YC-001, the samples were injected onto an Eclipse XDB-C18 column (4.6×150 mm, 5 μm) (Agilent Technologies) equilibrated with solvent composed of 30% acetonitrile in water (v/v), and 0.1% formic acid. YC-001 was eluted in a gradient of acetonitrile in water (30-100%) developed within 15 min at a flow rate of 1 mL min^−1, detected at 350 nm, and quantified by correlating peak areas with known quantities of an original synthetic standard. […]"}}, "data": [{"smiles": "O=C1OCC(c2ccc(Cl)s2)=C1c1cccs1", "note": "[YC-001]", "values": [{"measurement": "COX-1 enzymatic activity", "setting": "ovine COX-1", "result": "didn't see changes"}, {"measurement": "initial clearance in liver microsomes", "setting": "[1]", "result": "even higher initial clearance"}]}]}
